Test results from patent EP1673354B1, “ARYLINDENOPYRIDINES AND ARYLINDENOPYRIMIDINES AND THEIR USE AS ADENOSINE A2A RECEPTOR ANTAGONISTS” (Ortho-McNeil Pharmaceutical, Inc., priority 2003, dated 2005).

Legend:
[1] = target: T1, human adenosine A2a receptors (Homo sapiens, UniProt P29274); assay: Adenosine A2a receptor functional assay, antagonist mode (cAMP-inducible beta-galactosidase reporter, 50 nM NECA); format: cell-based; conditions: CHO-K1 cells, read-out: Ki (nM) A2a antagonist function
T1 construct: expressed in transfected cells; host or cells: CHO-K1 cells with cAMP-inducible beta-galactosidase reporter gene
Protocol: Adenosine A2a Receptor Functional Assay
CHO-K1 cells overexpressing human adenosine A2a receptors and containing cAMP-inducible beta-galactosidase reporter gene were seeded at 40-50K/well into 96-well tissue culture plates and cultured for two days. On assay day, cells were washed once with 200 µL assay medium (F-12 nutrient mixture/0.1 % BSA). For agonist assay, adenosine A2a receptor agonist NECA was subsequently added and cell incubated at 37°C, 5% CO2 for 5 hrs before stopping reaction. In the case of antagonist assay, cells were incubated with antagonists for 5 minutes at R.T. followed by addition of 50 nM NECA. Cells were then incubated at 37°C, 5% CO2 for 5 hrs before stopping experiments by washing cells with PBS twice. 50 µL 1X lysis buffer (Promega, 5X stock solution, needs to be diluted to 1X before use) was added to each well and plates frozen at -20°C. For β-galactosidase enzyme colorimetric assay, plates were thawed out at room temperature and 50 µL 2X assay buffer (Promega) added to each well. Color was allowed to develop at 37°C for 1 h or until reasonable signal appeared. Reaction was then stopped with 150 µL 1 M sodium carbonate. […] Data was analyzed in Microsoft Excel and GraphPad Prism programs.

[2] = target: T2, Adenosine A1 receptor (Homo sapiens, UniProt P30542); assay: A1 antagonist function (no method described); format: cell-based
T2 sequence (P30542 1-326): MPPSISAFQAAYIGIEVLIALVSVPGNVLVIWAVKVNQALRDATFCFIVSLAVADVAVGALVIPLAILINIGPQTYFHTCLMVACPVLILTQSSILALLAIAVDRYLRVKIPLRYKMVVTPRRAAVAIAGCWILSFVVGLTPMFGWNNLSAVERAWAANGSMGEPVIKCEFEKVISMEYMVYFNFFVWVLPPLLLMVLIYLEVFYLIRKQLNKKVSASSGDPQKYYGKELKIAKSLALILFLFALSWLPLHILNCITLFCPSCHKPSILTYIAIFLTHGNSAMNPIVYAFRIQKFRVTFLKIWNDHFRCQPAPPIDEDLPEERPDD

[3] = target: T3, human A2a adenosine receptor (Homo sapiens, UniProt P29274); assay: Ligand binding assay for adenosine A2a receptor ([3H]CGS21680, HEK293 plasma membrane); conditions: radioligand [3H]CGS21680, HEK293 membranes, room temperature 2 hours; read-out: Ki (nM) A2a binding
T3 construct: purchased PerkinElmer RB-HA2a; host or cells: HEK293 cell plasma membrane
Protocol: Ligand Binding Assay for Adenosine A2a Receptor
Ligand binding assay of adenosine A2a receptor was performed using plasma membrane of HEK293 cells containing human A2a adenosine receptor (PerkinElmer, RB-HA2a) and radioligand [^3H]CGS21680 (PerkinElmer, NET1021). Assay was set up in 96-well polypropylene plate in total volume of 200 µl by sequentially adding 20 µL1:20 diluted membrane, 130 µLassay buffer (50 mM Tris·HCl, pH7.4 10 mM MgCl2, 1 mM EDTA) containing [^3H] […] Nonspecific binding was determined by […] NECA. Reaction was carried out at room temperature for 2 hours before filtering through 96-well GF/C filter plate pre-soaked in 50 mM Tris·HCl, pH7.4 containing 0.3% polyethylenimine. Plates were then washed 5 times with cold 50 mM Tris·HCl, pH7.4, dried and sealed at the bottom. Microscintillation fluid 30 µl was added to each well and the top sealed. Plates were counted on Packard Topcount for [^3H]. Data was analyzed in Microsoft Excel and GraphPad Prism programs.

T1 sequence (P29274 whole entry): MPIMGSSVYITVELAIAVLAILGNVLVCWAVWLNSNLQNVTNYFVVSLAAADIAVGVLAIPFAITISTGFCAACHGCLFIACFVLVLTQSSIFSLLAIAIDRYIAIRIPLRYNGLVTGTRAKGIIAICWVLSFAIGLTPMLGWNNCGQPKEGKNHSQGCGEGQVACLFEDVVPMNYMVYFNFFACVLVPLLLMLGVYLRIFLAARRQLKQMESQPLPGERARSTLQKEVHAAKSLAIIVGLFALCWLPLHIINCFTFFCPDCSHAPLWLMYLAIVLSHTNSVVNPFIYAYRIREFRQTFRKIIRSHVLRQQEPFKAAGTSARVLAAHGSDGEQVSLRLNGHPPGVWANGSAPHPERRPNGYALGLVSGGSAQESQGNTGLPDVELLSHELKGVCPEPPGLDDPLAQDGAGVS
T3 sequence (P29274 whole entry): as above

| Compound | Ki [1] | Ki [2] | Ki [3] |
| --- | --- | --- | --- |
| N#Cc1c(N)nc(-c2ccsc2)c2c1-c1ccccc1C2=O [Compound 73] | 0.06 nM | 9.7 nM | 4.92 nM |
| N#Cc1c(N)nc(-c2ccco2)c2c1-c1ccccc1C2=O [Compound 63, 9H-indeno[2,1-c]pyridine-4-carbonitrile, 3-amino-1-furan-2-yl-9-oxo-] |  | 0.18 nM | 0.59 nM |
| Nc1nc(-c2ccco2)c2c(n1)-c1cc(C(F)(F)F)ccc1C2=O [Compound 23] | 0.55 nM | 1.47 nM | 13.6 nM |
| Nc1nc(-c2cccc(O)c2)c2c(n1)-c1ccccc1C2=O [Compound 13] | 35.6 nM | 10.3 nM | 5.16 nM |
| CN(C)CCNC(=O)c1c(N)nc(-c2ccco2)c2c1-c1ccccc1C2=O [Compound 76] | 22.1 nM | > 500 nM | 33 nM |
| Nc1nc(-c2ccco2)c2c(n1)-c1ccc(C(F)(F)F)cc1C2=O [Compound 22] | 0.055 nM | 2.75 nM | 14.2 nM |
| Nc1nc(-c2ccccc2)c2c(c1C(=O)OCCN1CCCC1)-c1ccccc1C2=O [Compound 88] | 48.9 nM | > 300 nM | 130 nM |
| Nc1nc(-c2ccco2)c2c(n1)-c1cc(Br)ccc1C2=O [Compound 35] | 0.265 nM | 7.09 nM | 3.49 nM |
| CC(C)(C)OC(=O)NC1CCN(Cc2cccc3c2C(=O)c2c(-c4ccccc4)nc(N)nc2-3)CC1 [Compound 60] |  |  | 34.3 nM |
| Nc1nc(Nc2ccccc2)c2c(n1)-c1ccccc1C2=O [Compound 43] | 3.68 nM | 2.34 nM | 39.9 nM |
| CNc1nc(-c2ccccc2)c2c(n1)-c1ccccc1C2=O [Compound 24] | > 3000 nM | 5.99 nM | 30.3 nM |
| CCc1nc(N)c(C#N)c2c1C(=O)c1ccccc1-2 [Compound 85] |  |  | 508 nM |
| N#Cc1c(N)nc(-c2ccccc2)c2c1-c1ccccc1C2=O [Compound 64] | 0.138 nM | 4.61 nM | 13.1 nM |
| CC(=O)N1CCN(Cc2cccc3c2C(=O)c2c(-c4ccccc4)nc(N)nc2-3)CC1 [Compound 59] | 7.94 nM | 34.1 nM | 40.8 nM |
| Nc1nc(-c2ccc(F)cc2)c2c(n1)-c1ccccc1C2=O [Compound 38] | 0.956 nM | 9.44 nM | 2.34 nM |
| Nc1nc(-c2ccoc2)c2c(n1)-c1ccccc1C2=O [Compound 44] | 0.208 nM | 7.4 nM | 3.93 nM |
| Nc1nc(-c2ccccc2)c2c(n1)-c1ccccc1C2=O [Compound 10, 2-amino-4-phenyl-indeno[1,2-d]pyrimidin-5-one] |  | 1.2 nM |  |
| COc1cccc2c1C(=O)c1c(-c3ccco3)nc(N)nc1-2 [Compound 37] | 0.143 nM | 3.07 nM | 2.86 nM |
| C[C@H](O)[C@@H](O)c1cccc2c1-c1nc(N)nc(-c3ccccc3)c1C2=O [Compound 33] | 0.34 nM | 0.021 nM | 0.175 nM |
| Cc1ccc(-c2nc(N)nc3c2C(=O)c2ccccc2-3)o1 [Compound 45, 2-amino-4-(5-methyl-furan-2-yl)-indeno[1,2-d]pyrimidin-5-one] | 0.005 nM | 0.016 nM | 4.01 nM |
| CCN(CC)Cc1cccc2c1C(=O)c1c(-c3ccccc3)nc(N)nc1-2 [Compound 52] | 18.3 nM | 107 nM | 94.4 nM |
| COc1ccc(-c2nc(N)nc3c2C(=O)c2ccccc2-3)cn1 [Compound 30] | 10.2 nM | 4.05 nM | 31.5 nM |

| Compound | Ki [1] | Ki [2] | Ki [3] |
| --- | --- | --- | --- |
| N#Cc1c(N)nc(-c2ccco2)c2c1-c1ccccc1C2O (centres unmarked) [Compound 89] | 1.12 nM | 11.2 nM | 5.85 nM |
| CCOC(=O)C1CCCN(Cc2cccc3c2C(=O)c2c(-c4ccccc4)nc(N)nc2-3)C1 (centres unmarked) [Compound 55] | 5.84 nM | 19.9 nM | 32.8 nM |
| CSc1nc(N)nc2c1C(=O)c1ccccc1-2 [Compound 41] | 575 nM | > 3000 nM | 88 nM |
| Nc1nc(-c2cccc(F)c2)c2c(n1)-c1ccccc1C2=O [Compound 39] | 0.926 nM | 2.31 nM | 4.92 nM |
| Nc1nc(-c2ccco2)c2c(n1)-c1cccc(O)c1C2=O [Compound 17] | 67.1 nM | 111 nM | 6.3 nM |
| Nc1nc(-c2cccc([N+](=O)[O-])c2)c2c(n1)-c1ccccc1C2=O [Compound 9] | 4.85 nM | 7.69 nM | 20.8 nM |
| COC(=O)C1CCCCN1Cc1cccc2c1C(=O)c1c(-c3ccccc3)nc(N)nc1-2 (centres unmarked) [Compound 54] | 3.19 nM | 19.6 nM | 40.8 nM |
| CCN(Cc1ccncc1)Cc1cccc2c1C(=O)c1c(-c3ccccc3)nc(N)nc1-2 [Compound 61] |  |  | 29.8 nM |
| Nc1nc(-c2ccccc2)c2c(c1C(=O)O)-c1ccccc1C2=O [Compound 65] | 245 nM | 163 nM | 575 nM |
| CC(COC(=O)c1c(N)nc(-c2ccccc2)c2c1-c1ccccc1C2=O)CN(C)C (centres unmarked) [Compound 92] | 13.9 nM | 32.9 nM | 38.8 nM |
| CN(C)CCN(C)Cc1cccc2c1C(=O)c1c(-c3ccccc3)nc(N)nc1-2 [Compound 49] | 40.1 nM | 119 nM | 51.1 nM |
| CN(C)CCOC(=O)c1c(N)nc(-c2ccccc2)c2c1-c1ccccc1C2=O [Compound 81, 9H-indeno[2,1-c]pyridine-4-carboxylic acid, 3-amino-1-phenyl-9-oxo-, 2-dimethylamino-ethyl ester] | 29 nM | 33.6 nM | 229 nM |
| CC(C)Cc1nc(N)c(C#N)c2c1C(=O)c1ccccc1-2 [Compound 86] | > 1000 nM | 39.3 nM | 244 nM |
| Nc1nc(-c2cc(F)cc(F)c2)c2c(n1)-c1ccccc1C2=O [Compound 29] | 1.42 nM | 4.27 nM | 20.9 nM |
| CN1CCCC1COC(=O)c1c(N)nc(-c2ccccc2)c2c1-c1ccccc1C2=O (centres unmarked) [Compound 90] | 57.7 nM | > 300 nM | 202 nM |
| CC(CN(C)C)NC(=O)c1c(N)nc(-c2ccco2)c2c1-c1ccccc1C2=O (centres unmarked) [Compound 78, 9H-indeno[2,1-c]pyridine-4-carboxylic acid, 3-aminol-furan-2-yl-9-oxo-, (2-dimethylamino-1-methyl-ethyl)-amide] | 1.58 nM |  | 17.6 nM |
| N#Cc1c(N)nc(-c2cccnc2)c2c1-c1ccccc1C2=O [Compound 68] | 0.73 nM | 34.8 nM | 7.59 nM |
| Nc1nc(-c2ccc(Cl)cc2)c2c(n1)-c1ccccc1C2=O [Compound 8] | 5.5 nM | 11.6 nM | 58.4 nM |
| CN(Cc1ccco1)Cc1cccc2c1C(=O)c1c(-c3ccccc3)nc(N)nc1-2 [Compound 62] |  |  | 58.4 nM |
| CCCn1cc(-c2nc(N)nc3c2C(=O)c2ccccc2-3)ccc1=O [Compound 34] |  |  | 560 nM |
| CN(C)CCN(C)C(=O)c1c(N)nc(-c2ccco2)c2c1-c1ccccc1C2=O [Compound 77, 9H-indeno[2,1-c]pyridine-4-carboxylic acid, 3-amino-1-furan-2-yl-9-oxo-, (2-dimethylamino-ethyl)-methyl-amide] | 0.68 nM |  | 6.25 nM |
| Nc1nc(-c2nccs2)c2c(n1)-c1ccccc1C2=O [Compound 7] | 0.49 nM | 6.89 nM |  |
